Reference: patent US11918550B2, “Sensitization of cancer cells to differentiation therapy with mitochondrial uncoupler niclosamide ethanolamine” (The Board of Trustees of the Leland Stanford Junior …, priority 2020, dated 2024)

Legend:
Format in all cases: cell-based
NB16 cells [1] = assay: Relative intracellular metabolite levels by LC/MS
Description: (§1) Metabolic analysis. For the metabolomics and isotope tracing analysis in vitro, cells were washed with cold PBS, lysed in 80% Ultra LC-MS acetonitrile on ice for 15 minutes, centrifuged at 20,000 g for 10 minutes at 4° C., and supernatant was subjected to mass spectrometry analysis. For the metabolomics analysis in vivo, 10-20 mg tissue were cut off on ice, rinsed if necessary to remove blood, and place in a 2 ml round-bottom cryovial. The tissues were homogenized by 3 times 10 s on/off bursts homogenization in 1 ml 80% methanol on dry ice. Transfer the homogenate to an Eppendorf tube and keep on liquid nitrogen while processing the remaining samples. Incubated all the samples in −80° C. for 30 minutes. After incubation, vortexed the samples for 5 seconds. Then centrifuged the samples at 20,000 g for 10 minutes at 4° C., and supernatant was subjected to mass spectrometry analysis. Resuspend the remaining cellular pellet in 100 ul protein lysis buffer and determine the protein concentration. Then calculate the total protein content per sample.
(§2) Liquid chromatography was performed using an Agilent 1290 Infinity LC system (Agilent, Santa Clara, US) coupled to a Q-TOF 6545 mass spectrometer (Agilent, Santa Clara, US). A hydrophilic interaction chromatography method (HILIC) with a BEH amide column (100×2.1 mm i.d., 1.7 μm; Waters) was used for compound separation at 35° C. with a flow rate of 0.3 ml/minutes. The mobile phase A consisted of 25 mM ammonium acetate and 25 mM ammonium hydroxide in water and mobile phase B was acetonitrile. The gradient elution was 0-1 minute, 85% B; 1-12 minutes, 85% B→65% B; 12-12.2 minutes, 65% B→40% B; 12.2-15 minutes, 40% B. After the gradient, the column was re-equilibrated at 85% B for 5 minutes. The overall runtime was 20 minutes, and the injection volume was 5 μL. Agilent Q-TOF was operated in negative mode and the relevant parameters were as listed: ion spray voltage, 3500 V; nozzle voltage, 1000 V; fragmentor voltage, 125 V; drying gas flow, 11 L/minutes; capillary temperature, 325° C., drying gas temperature, 350° C.; and nebulizer pressure, 40 psi. A full scan range was set at 50 to 1600 (m/z). The reference mass was 119.0363 and 980.0164. The acquisition rate was 2 spectra/s. Targeted analysis, isotopologues extraction and natural isotope abundance correction were performed by Agilent Profinder B.10.00 (Agilent Technologies).

SK-N-BE(2) cells [2] = assay: Relative intracellular metabolite levels by LC/MS
Description: as §1, §2

NB16 cells [3] = assay: Neurite outgrowth and β-tubulin III immunofluorescence (neuron differentiation); conditions: 72-96 h
Description: (§3) Neurite outgrowth assay. The quantification of neurite was performed as described before. Shortly, 1×10^4 SK-N-BE(2) and NB16 cells were plated in a 12 well-plate per well. After overnight incubation, cells were treated with various conditions as indicated for 72 h. Then, images were taken by a Leica Florescent Microscope DMi8 in phase contrast mode (20× magnification). The lengths of the neurites were traced and quantified using the ImageJ plugin NeuronJ. For each sample, total neurite length was measured and normalized to the number of cell bodies, mean value from 3 biological replicates was reported. Immunofluorescence staining. SK-N-BE(2) and NB16 cells were seeded into 8-chamber slides (Thermo Fisher Scientific, 154534) with a density of 6×10^3 cells/well overnight and treated with indicated treatment for 72 h. Cells were fixed with 4% PFA in PBS with 0.1% Tween-20 at RT for 30 minutes followed by permeabilization with 0.1% Triton X-100 in PBS at room temperature for 10 min. The cells were washed with PBS twice and blocked with 2.5% horse serum in PBS at RT for 1 h. Then, cells were subjected to immunofluorescence staining with primary antibody at 4° C. overnight. After two washes with PBS, cells were incubated with Alexa Fluor 594-conjugated anti-rabbit secondary antibody (Life Technologies) at RT for 1 h followed by staining with DAPI (Vector Laboratories, H-1800-2). Images were acquired with Leica DMi8 microscope.

SK-N-BE(2) cells [4] = assay: as above; conditions: 72-96 h
Description: as §3

SK-N-BE(2) cells [5] = assay: 1-13C-glutamine tracing of reductive carboxylation under normoxia or hypoxia; conditions: 1 μM NEN
Description: as §1
Liquid chromatography was performed using an Agilent 1290 Infinity LC system (Agilent, Santa Clara, US) coupled to a Q-TOF 6545 mass spectrometer (Agilent, Santa Clara, US). […]

[6] = system: HIF target genes such as pdk1, pdk3, pgk1 and Idha; assay: RT-PCR of HIF target genes; conditions: SK-N-BE(2), 2 or 4 μM NEN, normoxia or hypoxia
Description: RNA isolation, reverse transcription, and real-time PCR. The procedure was performed as described before. Briefly, total RNA was isolated from 60 mm tissue culture plates according to the TRIzol Reagent (Invitrogen, 15596026) protocol. 3 μg of total RNA was used in the reverse transcription reaction using the iScript cDNA synthesis kit (Bio-Rad). Quantitative PCR amplification was performed on the Prism 7900 Sequence Detection System (Applied Biosystems) using Taqman Gene Expression Assays (Applied Biosystems). Gene expression level were normalized to 18S rRNA.

[7] = system: RA-resistant neuroblastoma cells; assay: Cell proliferation (cell counting), NEN with RA; conditions: NEN combined with RA, 3 days
Description: Cell proliferation and clonogenic assay. 2×10^4 cells were seeded in 12 well-plate and allowed to attached overnight. […] After treatment, cells were counted using hemocytometer.

[8] = SK-N-BE(2) cells, 1 μM NEN 2 h or 5 h vs DMSO
[9] = SK-N-BE(2) cells, 1 μM NEN 5 h vs DMSO
[10] = SK-N-BE(2), 1 μM NEN under hypoxia 3 h or 6 h

`O=C(Nc1ccc([N+](=O)[O-])cc1Cl)c1cc(Cl)ccc1O` [NEN, 5-chloro-N-(2-chloro-4-nitrophenyl)-2-hydroxybenzamide compound with 2-aminoethanol (1:1)] was tested, and the aspartate level (NB16 cells [1]; 1 μM NEN 2 h or 5 h vs DMSO) was “accumulated”, the citrate level (NB16 cells [1]; 1 μM NEN 2 h or 5 h vs DMSO) was “not affected” and the fumarate level (NB16 cells [1]; 1 μM NEN 2 h or 5 h vs DMSO) was “no significant increase”. For the same molecule, the “intracellular α-KG levels” value (NB16 cells [1]; 1 μM NEN 2 h or 5 h vs DMSO) was “increased significantly”, the malate level (NB16 cells [1]; 1 μM NEN 2 h or 5 h vs DMSO) was “no significant increase” and the succinate level (NB16 cells [1]; 1 μM NEN 2 h or 5 h vs DMSO) was “accumulated”. The intracellular glutamate level (NB16 cells [1]; 1 μM NEN 5 h vs DMSO) was “significantly reduced”, the intracellular glutamine level (NB16 cells [1]; 1 μM NEN 5 h vs DMSO) was “significantly reduced” and the aspartate level (SK-N-BE(2) cells [2]; [8]) was “accumulated”. For the same molecule, the citrate level (SK-N-BE(2) cells [2]; [8]) was “not affected”, the fumarate level (SK-N-BE(2) cells [2]; [8]) was “no significant increase” and the “intracellular α-KG levels” value (SK-N-BE(2) cells [2]; [8]) was “increased significantly”. For the same molecule, the malate level (SK-N-BE(2) cells [2]; [8]) was “no significant increase”, the succinate level (SK-N-BE(2) cells [2]; [8]) was “accumulated” and the intracellular glutamate level (SK-N-BE(2) cells [2]; [9]) was “significantly reduced”. The intracellular glutamine level (SK-N-BE(2) cells [2]; [9]) was “significantly reduced”, the “2-HG levels under hypoxia” value (SK-N-BE(2) cells [2]; [10]) was “significantly reduced” and the “α-KG level under hypoxia” value (SK-N-BE(2) cells [2]; [10]) was “partially restored”. The “neuron differentiation morphology, NEN combined with RA vs NEN alone” value (NB16 cells [3]; NB16, 1 μM NEN + 1 μM 13-cis-RA) was “more profound”, the “neuron differentiation morphology (neurite length, β-tubulin III staining)” value (NB16 cells [3]; NB16, 1 μM NEN alone) was “induced” and the “neuron differentiation morphology, NEN combined with RA vs NEN alone” value (SK-N-BE(2) cells [4]; 1 μM NEN + 1 μM 13-cis-RA) was “more profound”. The “neuron differentiation morphology (neurite length, β-tubulin III staining)” value (SK-N-BE(2) cells [4]; 1 μM NEN alone) was “induced”, the “hypoxia-induced reductive carboxylation flux” value (SK-N-BE(2) cells [5]; hypoxia (0.5% oxygen)) was “fully repressed” and the “basal reductive carboxylation flux” value (SK-N-BE(2) cells [5]; normoxia) was “reduced”. The “expression of HIF target genes such as pdk1, pdk3, pgk1 and Idha” value [6] was “reduced” and the “RA-dependent proliferation arrest effect” value [7] was “enhanced”.
